Measured values from patent EP4562004B1, “NOVEL 7-SUBSTITUTED INDOLE SULFONAMIDE DERIVATIVES” (F. Hoffmann-La Roche AG, priority 2022, dated 2024).

Molecular target: human GPR17 short isoform (Homo sapiens, UniProt Q13304)
Assay: GPR17 cAMP assay (antagonist mode, TR-FRET cAMP detection)
Type: cell-based
Details: CHO-K1 cells stably expressing human GPR17 short isoform; with EC80 concentration of agonist MDL29,951, IBMX 0.5mM, forskolin 15µM; normalized to reference antagonist; read-out: hGPR17 cAMP IC50
Experimental: CHO-K1 cells stably expressing vector containing untagged human GPR17 short isoform (Roche) were cultured at 37°C / 5% CO2 in DMEM (Dulbecco's Modified Eagle Medium):F-12 (1:1) supplemented with 10% foetal bovine serum and 400 µg/ml Geneticin.
Changes in intracellular cyclic adenosine monophosphate (cAMP) levels were quantified using the Nano-TRF Detection Assay kit (Roche Diagnostics, Cat. No. 05214386001). This assay allows for direct cAMP quantification in a homogeneous solution. cAMP is detected based on time-resolved fluorescence energy transfer (TR-FRET) and competitive binding of ruthenylated cAMP and endogenous cAMP to an anti-cAMP monoclonal antibody labeled with AlexaFluor-700. The Ruthenium complex serves as the FRET donor and transfers energy to AlexaFluor-700. The FRET signal is inversely proportional to the cAMP concentration.
CHO-GPR17S cells were detached with Accutase and resuspended in assay buffer consisting of Hank's Balanced Salt Solution (HBSS), 10mM HEPES (4-(2-hydroxyethyl) piperazine-1-ethanesulfonic acid solution) and 0.1% bovine serum albumin (pH 7.4). The cells were seeded in black 384-well plates (Corning) at a density of 10'000 cells / 20µl assay buffer until the addition of compounds.
Test antagonist compounds were serially diluted in dimethyl sulfoxide (DMSO) and spotted in 384-well plates. The compounds were then diluted in HBSS buffer supplemented with an EC80 concentration of MDL29,951 (3-(2-Carboxy-4,6-dichloroindol-3-yl)propionic acid) (GPR17 agonist) plus 3-Isobutyl-1-methylxanthine (IBMX) (0.5mM final concentration) and added to the cells at room temperature. Forskolin (15µM final concentration) was added 5 minutes after the test compounds and the cells were incubated at room temperature for 30 minutes. The assay was stopped by adding cAMP detection mix (containing detergents for cell lysis) for 90 minutes at room temperature.
Cellular cAMP was measured using a Paradigm reader (Molecular Devices). The raw data was used to calculate the FRET signal based on the assay's P-factor as per cAMP kit instructions. The data was normalized to the maximal activity of a reference antagonist and dose response curves were fitted to the percent activity of the test compounds using a sigmoidal dose response model (Genedata Screener).
Results in the hGPR17 cAMP assay are provided for compounds of formula I in Table 1 Table 1: […]

Sequence of human GPR17 short isoform (Q13304 29-367): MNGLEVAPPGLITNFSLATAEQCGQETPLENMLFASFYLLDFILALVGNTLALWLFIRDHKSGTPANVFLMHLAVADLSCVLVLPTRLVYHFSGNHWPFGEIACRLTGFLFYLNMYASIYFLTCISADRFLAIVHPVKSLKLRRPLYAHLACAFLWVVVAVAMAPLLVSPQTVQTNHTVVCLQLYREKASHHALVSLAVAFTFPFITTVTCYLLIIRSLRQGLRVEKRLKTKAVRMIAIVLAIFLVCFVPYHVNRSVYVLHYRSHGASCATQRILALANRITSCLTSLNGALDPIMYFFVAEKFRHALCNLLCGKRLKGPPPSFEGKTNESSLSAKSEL

| Structure (SMILES) | IC50 |
| --- | --- |
| COc1nc(NS(=O)(=O)c2c[nH]c3c(-n4ccc(C)n4)c(Cl)ccc23)nc(OC)c1OCC(F)F [Example 44, 6-chloro-N-[5-(2,2-difluoroethoxy)-4,6-dimethoxy-pyrimidin-2-yl]-7-(3-methylpyrazol-1-yl)-1H-indole-3-sulfonamide] | 23 nM |
| COc1nc(NS(=O)(=O)c2c[nH]c3c(-n4nccn4)c(C)ccc23)nc(OC)c1OC(F)F [Example 24, N-[5-(difluoromethoxy)-4,6-dimethoxy-pyrimidin-2-yl]-6-methyl-7-(triazol-2-yl)-1H-indole-3-sulfonamide] | 38 nM |
| COc1nc(NS(=O)(=O)c2c[nH]c3c(-n4nccn4)c(C(F)F)ccc23)nc(OC)c1OCC(F)F [Example 11, N-[5-(2,2-difluoroethoxy)-4,6-dimethoxy-pyrimidin-2-yl]-6-(difluoromethyl)-7-(triazol-2-yl)-1H-indole-3-sulfonamide] | 74 nM |
| COc1nc(NS(=O)(=O)c2c[nH]c3c(-n4ccc(C)n4)cccc23)nc(OC)c1CC(F)F [Example 1, N-[5-(2,2-difluoroethyl)-4,6-dimethoxy-pyrimidin-2-yl]-7-(3-methylpyrazol-1-yl)-1H-indole-3-sulfonamide] | 68 nM |
| COc1nc(NS(=O)(=O)c2c[nH]c3c(-n4cccn4)c(C)ccc23)nc(OC)c1OCCF [Example 82, N-[5-(2-fluoroethoxy)-4,6-dimethoxy-pyrimidin-2-yl]-6-methyl-7-pyrazol-1-yl-1H-indole-3-sulfonamide] | 68 nM |
| [2H]C([2H])(F)C([2H])([2H])Oc1c(OC)nc(NS(=O)(=O)c2c[nH]c3c(-n4nccn4)c(Cl)ccc23)nc1OC [Example 85, 6-chloro-N-[4,6-dimethoxy-5-(1,1,2,2-tetradeuterio-2-fluoro-ethoxy)pyrimidin-2-yl]-7-(triazol-2-yl)-1H-indole-3-sulfonamide] | 42 nM |
| COc1nc(NS(=O)(=O)c2c[nH]c3c(-n4cccn4)c(C)ccc23)nc(OC)c1OCC(F)F [Example 74, N-[5-(2,2-difluoroethoxy)-4,6-dimethoxy-pyrimidin-2-yl]-6-methyl-7-pyrazol-1-yl-1H-indole-3-sulfonamide] | 59 nM |
| [2H]C([2H])(F)C([2H])([2H])Oc1c(OC)nc(NS(=O)(=O)c2c[nH]c3c(-n4cccn4)c(Br)ccc23)nc1OC [Example 84, 6-bromo-N-[4,6-dimethoxy-5-(1,1,2,2-tetradeuterio-2-fluoro-ethoxy)pyrimidin-2-yl]-7-pyrazol-1-yl-1H-indole-3-sulfonamide] | 26 nM |

Continued by falling IC50, values first:

| IC50 | Structure (SMILES) |
| --- | --- |
| 63 nM | COc1nc(NS(=O)(=O)c2c[nH]c3c(-n4cccn4)c(Cl)ccc23)ncc1CC(F)F [Example 71, 6-chloro-N-[5-(2,2-difluoroethyl)-4-methoxy-pyrimidin-2-yl]-7-pyrazol-1-yl-1H-indole-3-sulfonamide] |
| 34 nM | COc1nc(NS(=O)(=O)c2c[nH]c3c(-n4ncc(C)n4)c(Cl)ccc23)nc(OC)c1OCC(F)F [Example 38, 6-chloro-N-[5-(2,2-difluoroethoxy)-4,6-dimethoxy-pyrimidin-2-yl]-7-(4-methyltriazol-2-yl)-1H-indole-3-sulfonamide] |
| 34 nM | COc1nc(NS(=O)(=O)c2c[nH]c3c(-n4nccn4)c(C)ccc23)nc(OC)c1OCC(F)F [Example 25, N-[5-(2,2-difluoroethoxy)-4,6-dimethoxy-pyrimidin-2-yl]-6-methyl-7-(triazol-2-yl)-1H-indole-3-sulfonamide] |
| 30 nM | COc1nc(NS(=O)(=O)c2c[nH]c3c(-n4nccn4)c(Br)ccc23)nc(OC)c1C1CC1C#N (stereo not shown) [Example 31, 6-bromo-N-[5-(2-cyanocyclopropyl)-4,6-dimethoxy-pyrimidin-2-yl]-7-(triazol-2-yl)-1H-indole-3-sulfonamide] |
| 24 nM | COc1nc(NS(=O)(=O)c2c[nH]c3c(-n4nccn4)c(Cl)ccc23)nc(OC)c1CC(F)CF (stereo not shown) [Example 16, 6-chloro-N-[5-(2,3-difluoropropyl)-4,6-dimethoxy-pyrimidin-2-yl]-7-(triazol-2-yl)-1H-indole-3-sulfonamide] |
